We go through 22 molecules from patent publication US6147097A, “Imidazole derivatives as anti-HIV agents” (Shionogi & Co., Ltd., priority 1994, dated 2000).

Converted amounts (≈) assume the structure as drawn. Like-named read-outs stand apart in the source and are kept apart here.

Series [1] concerns the target T1, purified recombinant HIV-1 reverse transcriptase (Human immunodeficiency virus type 1 group M subtype B, UniProt P04585).
T1 construct: purified recombinant HIV-1 reverse transcriptase; made in house; host or cells: Escherichia coli
Description: reverse transcriptase inhibition, poly(rA)/(dT) template primer, [3H]dTTP uptake. Format: biochemical. In short, it runs like this:
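Inhibition reported as percent reduction of [3H]dTTP incorporation relative to solvent control, after 1 h at 37 °C at pH 8.3. Recombinant RT from E. coli, poly(rA) template with oligo(dT) primer, 4 μM unlabeled dTTP as substrate; product collected on DEAE filter mats.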

A short description of series [2]: cytotoxicity in MT-4 cells (MTT, culture medium in place of HIV). Format: cell-based. Conditions: human. In short, it runs like this: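 Uninfected readout: compound-treated MT-4 cultures, 3.5×10^4 cells/well, received medium in place of virus and were kept 5 days at 37° C. Viability measured by 1 h MTT reduction, solubilized formazan read at 560/690 nm relative to control wells.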

A further series deals with HIV (HTLV-IIIB strain). Description: microbe, parasite or virus in culture. Format: cell-based. Conditions: Human immunodeficiency virus 1, IIIB, MT4, 120 h. The method, boiled down: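 Protection from virus was read as viable-cell MTT conversion to formazan after 5 days at 37° C. The cultures contained MT-4 cells (3.5×10^4/well), compound dilutions and 60 pfu HIV per well.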

The mark [3] stands for this setting: MT-4 cells, no virus, 37° C., 5 days, MTT, Table 3, read-out: CC50.
The mark [4] stands for this setting: MT-4 cells, 60 pfu HIV per well, 37° C., 5 days, MTT, Tables 1 and 2, read-out: EC50.

Turning to `CC(C)c1nc(CCOC(N)=O)n(C)c1Sc1cc(Cl)cc(Cl)c1` [Compound I-81, 2-(2-carbamoyloxy)ethyl-5-(3,5-dichlorophenylthio)-4-isopropyl-1-methyl-1H-imidazole], in series [1], the IC50 (usually the concentration that gives 50% inhibition) was 7.73 µM. Further, the half-maximal cytotoxic concentration (CC50) (in general, the concentration that lowers cell viability or growth by half) at 120 h in series [2] (setting [3]) is 10 to 100 µg/mL (≈ 25.8 to 258 µM). Also, the EC50 (usually the concentration that produces a half-maximal response) with HIV (HTLV-IIIB strain) turned out to be 0.13 µg/mL (≈ 0.335 µM).
Regarding `Cc1cc(C)cc([S+]([O-])c2c(C(C)C)nc(C)n2C)c1` (stereo not drawn) [Compound I-104, 5-(3,5-dimethylphenylsulfinyl)-4-isopropyl-1,2-dimethyl-1H-imidazole], the 50% inhibitory concentration (IC50) in series [1] is above 344 µM. Moreover, the CC50 at 120 h in series [2] (setting [3]) lay in the range of 10 to 100 µg/mL (≈ 34.4 to 344 µM). The EC50 in the series with HIV (HTLV-IIIB strain) (setting [4]) fell in the range of 1 to 10 µg/mL (≈ 3.44 to 34.4 µM).
Taken in the same sequence, the figures for `CC(C)c1nc(CO)n(C(C)C)c1Sc1cc(Cl)cc(Cl)c1` [Compound I-27, [5-(3,5-dichlorophenylthio)-1,4-diisopropyl-1H-imidazol-2-yl]methanol] were 3.34 µM, 10 to 100 µg/mL (≈ 27.8 to 278 µM) and 0.03 µg/mL (≈ 0.0835 µM).
On to `CC(C)c1nc(COC(N)=O)n(Cc2ccccc2)c1Sc1cc(Cl)cc(Cl)c1` [Compound I-45, 1-benzyl-2-carbamoyloxymethyl-5-(3,5-dichlorophenylthio)-4-isopropyl-1H-imidazole], for which the IC50 in series [1] was 1.44 µM. Moreover, in series [2] (setting [3]), the CC50 at 120 h is 12.5 µg/mL (≈ 27.8 µM). Also, the concentration giving a half-maximal response (EC50) in the series with HIV (HTLV-IIIB strain) was 0.004 to 0.008 µg/mL (≈ 0.00888 to 0.0178 µM).
Take `CC(C)c1nc(CO)n(CC(F)(F)F)c1Sc1cc(Cl)cc(Cl)c1` [Compound I-33, 2-[5-(3,5-dichlorophenylthio)-4-isopropyl-1-(1,1,1-trifluoroethyl)-1H-imidazol-2-yl]methanol]: in series [1], the IC50 is 9.77 µM. Moreover, the CC50 at 120 h in series [2] (setting [3]) was 10 to 100 µg/mL (≈ 25 to 250 µM). Also, the EC50 with HIV (HTLV-IIIB strain) (setting [4]) worked out at 0.016 µg/mL (≈ 0.0401 µM).
The matching figures for `CC(C)c1c(Sc2cc(Cl)cc(Cl)c2)nc(CO)n1C` [Compound I-39, [4-(3,5-dichlorophenylthio)-5-isopropyl-1-methyl-1H-imidazol-2-yl]methanol]: 198 µM, 10 to 100 µg/mL (≈ 30.2 to 302 µM) and 1 to 10 µg/mL (≈ 3.02 to 30.2 µM).
Take `CC(C)c1nc(CCO)n(C)c1Sc1cc(Cl)cc(Cl)c1` [Compound I-81a, 2-[5-(3,5-dichlorophenylthio)-4-isopropyl-1-methyl-1H-imidazol-2-yl]ethanol]: the concentration for half-maximal inhibition (IC50) in series [1] is 0.405 µM. In series [2] (setting [3]), the CC50 at 120 h worked out at 12.5 µg/mL (≈ 36.2 µM). For the same molecule, the EC50 in the series on HIV (HTLV-IIIB strain) worked out at 0.001 µg/mL (≈ 0.0029 µM).
For `CC(C)c1nc(COC(N)=O)n(C)c1Cc1cc(Cl)cc(Cl)c1` [Compound I-103, 2-carbamoyloxymethyl-5-(3,5-dichlorobenzyl)-4-isopropyl-1-methyl-1H-imidazole], the IC50 in series [1] was 19.1 µM. Moreover, in series [2] (setting [3]), the CC50 at 120 h was in the range of 10 to 100 µg/mL (≈ 28.1 to 281 µM). In the series on HIV (HTLV-IIIB strain), this molecule showed an EC50 of 0.5 µg/mL (≈ 1.4 µM).
Take `CC(C)c1nc(CCOCc2ccccc2)n(C)c1Sc1cc(Cl)cc(Cl)c1` [Compound I-136, 2-(2-benzyloxyethyl)-5-(3,5-dichlorophenylthio)-4-isopropyl-1-methyl-1H-imidazole]: the IC50 in series [1] (read-out: RT IC50, pH 8.3, 37° C., 1 hour, Tables 5 and 6) is 4.59 µM. The midpoint of cytotoxicity in series [2] (mt-4 cells), the CC50 at 120 h, lay at 12.5 µg/mL (≈ 28.7 µM). Also, the EC50 in the series with HIV (HTLV-IIIB strain) (setting [4]) lay within 0.008 to 0.016 µg/mL (≈ 0.0184 to 0.0367 µM).
As to `CC(C)c1nc(CO)n(CCCCc2ccccc2)c1Sc1cc(Cl)cc(Cl)c1` [Compound I-123, 5-(3,5-dichlorophenylthio)-2-hydroxymethyl-4-isopropyl-1-(4-phenylbutyl)-1H-imidazole], the IC50 in series [1] is 77.4 µM. In series [2] (mt-4 cells), this molecule had a CC50 at 120 h of 12.5 µg/mL (≈ 27.8 µM). Moreover, in the series with HIV (HTLV-IIIB strain) (setting [4]), the EC50 is 0.06 µg/mL (≈ 0.133 µM).
Turning to `CCn1c(COC(N)=O)nc(C(C)C)c1Sc1cc(Cl)cc(Cl)c1` [Compound I-52, 2-carbamoyloxymethyl-5-(3,5-dichlorophenylthio)-1-ethyl-4-isopropyl-1H-imidazole], in series [1], the IC50 was 0.464 µM. In addition, the CC50 at 120 h in series [2] (setting [3]) was 10 µg/mL (≈ 25.8 µM). The same molecule came in with an EC50 with HIV (HTLV-IIIB strain) of 0.003 µg/mL (≈ 0.00773 µM).
As for `Cc1ncccc1Cn1c(CO)nc(C(C)C)c1Sc1cc(Cl)cc(Cl)c1` [Compound 119a, 5-(3,5-dichlorophenylthio)-2-hydroxymethyl-4-isopropyl-1-(2-methylpyridin-3-ylmethyl)-1H-imidazole], the IC50 in series [1] is 14.7 µM. In series [2] (mt-4 cells), this molecule came in with a half-maximal cytotoxic concentration (CC50) at 120 h of 12.5 µg/mL (≈ 29.6 µM). Also, the EC50 with HIV (HTLV-IIIB strain) (setting [4]) is below 0.008 µg/mL.
On to `CC(C)c1nc(CO)n(Cc2ccccc2)c1Sc1cccc(Cl)c1` [Compound I-20, [1-benzyl-5-(3-chlorophenylthio)-4-isopropyl-1H-imidazol-2-yl]methanol], for which the IC50 in series [1] is 5.63 µM. Further, in series [2] (setting [3]), the CC50 at 120 h is 6.3 to 12.5 µg/mL (≈ 16.9 to 33.5 µM). The half-maximal effective concentration (EC50) in the series with HIV (HTLV-IIIB strain) (setting [4]) worked out at 0.008 µg/mL (≈ 0.0215 µM).
`CC(C)c1nc(CO)n(Cc2cnc3ccccc3c2)c1Sc1cc(Cl)cc(Cl)c1` [Compound 109, 2-hydroxymethyl-5-(3,5-dichlorophenylthio)-4-isopropyl-1-(quinolin-3-ylmethyl)-1H-imidazole]: the IC50 in series [1] is 4.36 µM. The molecule further returned a CC50 at 120 h in series [2] (mt-4 cells) of 100 µg/mL (≈ 218 µM). Moreover, the EC50 with HIV (HTLV-IIIB strain) (setting [4]) came to 0.008 µg/mL (≈ 0.0175 µM).
The matching figures for `CC(C)c1nc(CO)n(CCc2ccccc2)c1Sc1cc(Cl)cc(Cl)c1` [Compound I-121, 5-(3,5-dichlorophenylthio)-2-hydroxymethyl-4-isopropyl-1-(2-phenylethyl)-1H-imidazole]: 85.2 µM, 12.5 µg/mL (≈ 29.7 µM) and 0.06 µg/mL (≈ 0.142 µM).
Taken in the same sequence, the figures for `CC(C)c1nc(CO)n(Cc2cccc3ccccc23)c1Sc1cc(Cl)cc(Cl)c1.Cl` [Compound I-120, 5-(3,5-dichlorophenylthio)-2-hydroxymethyl-4-isopropyl-1-(1-naphthylmethyl)-1H-imidazole hydrochloride] were 99.6 µM, 100 µg/mL and 0.13 µg/mL.
The matching figures for `CC(C)c1nc(CO)n(Cc2ccc[nH]c2=O)c1Sc1cc(Cl)cc(Cl)c1` [Compound 116b, 5-(3,5-dichlorophenyl-thio)-2-hydroxymethyl-1-(2(1H)-pyridon-3-ylmethyl)-4-isopropyl-1H-imidazole]: 7.54 µM, 50 µg/mL (≈ 118 µM) and 0.016 µg/mL (≈ 0.0377 µM).
For the molecule `Cc1cc(C)cc([S+]([O-])c2c(C(C)C)nc(CO)n2C)c1` (stereo not drawn) [Compound I-106, [5-(3,5-dimethylphenylsulfinyl)-4-isopropyl-1-methyl-1H-imidazol-2-yl]methanol], the IC50 in series [1] is above 326 µM. In series [2] (setting [3]), the CC50 at 120 h was 100 µg/mL (≈ 326 µM). Further, the EC50 in the series on HIV (HTLV-IIIB strain) (setting [4]) was 1 to 10 µg/mL (≈ 3.26 to 32.6 µM).
Consider `CC(C)c1nc(CO)n(Cc2cccc([N+](=O)[O-])c2)c1Sc1cc(Cl)cc(Cl)c1` [Compound 103b, 5-(3,5-dichlorophenylthio)-2-hydroxymethyl-4-isopropyl-1-(m-nitrobenzyl)-1H-imidazole], for which, in series [1], the IC50 is 25 µM. In addition, the CC50 at 120 h in series [2] (mt-4 cells) was 50 µg/mL (≈ 111 µM). The concentration for a half-maximal effect (EC50) in the series with HIV (HTLV-IIIB strain) (setting [4]) stood at 0.008 µg/mL (≈ 0.0177 µM).
As for `CC(C)c1c(Sc2cccc(Cl)c2)nc(COC(N)=O)n1C` [Compound I-59, 2-carbamoyloxymethyl-4-(3-chlorophenylthio)-5-isopropyl-1-methylimidazole], the IC50 in series [1] was above 294 µM. In series [2] (setting [3]), the CC50 at 120 h fell in the range of 12.5 to 25 µg/mL (≈ 36.8 to 73.6 µM). In addition, the EC50 in the series with HIV (HTLV-IIIB strain) came out at 12.5 µg/mL (≈ 36.8 µM).
`Cc1cc(C)cc(S(=O)(=O)c2c(C(C)C)nc(C)n2C)c1` [Compound I-105, 5-(3,5-dimethylphenylsulfonyl)-4-isopropyl-1,2-dimethyl-1H-imidazole]: in series [1], the IC50 is 171 µM. Moreover, the CC50 at 120 h in series [2] (setting [3]) lay within 50 to 100 µg/mL (≈ 163 to 326 µM). Besides, in the series on HIV (HTLV-IIIB strain) (setting [4]), the EC50 was 0.5 µg/mL (≈ 1.63 µM).
As for `CC(C)c1nc(COC(N)=O)n(Cc2cnc3ccccc3c2)c1Sc1cc(Cl)cc(Cl)c1` [Compound I-128, 2-carbamoyloxymethyl-5-(3,5-dichlorophenylthio)-4-isopropyl-1-(quinolin-3-ylmethyl)-1H-imidazole], the IC50 in series [1] is 5.38 µM. In addition, the CC50 at 120 h in series [2] (mt-4 cells) is above 100 µg/mL. Also, the EC50 in the series with HIV (HTLV-IIIB strain) (setting [4]) is below 0.008 µg/mL.
